In assay [1] the target is T1, FAK (Homo sapiens, UniProt Q05397). Put plainly: Cell-based capture ELISA for inhibition of FAK autophosphorylation [pY397] in U87MG cells. The note with it: Mean FAK Cell Mechanistic IC50 + 50% mP U87MG, + 50% mouse plasma. For orientation: An ELISA detects its analyte on a solid surface through an enzyme-linked reagent.
Assay [2] addresses T1, FAK. Nature of the assay: biochemical.

For orientation: IC50 means the concentration that gives 50% inhibition.

A value given as a limit tells only on which side of the number the result lay.

T1 sequence (Q05397 whole entry): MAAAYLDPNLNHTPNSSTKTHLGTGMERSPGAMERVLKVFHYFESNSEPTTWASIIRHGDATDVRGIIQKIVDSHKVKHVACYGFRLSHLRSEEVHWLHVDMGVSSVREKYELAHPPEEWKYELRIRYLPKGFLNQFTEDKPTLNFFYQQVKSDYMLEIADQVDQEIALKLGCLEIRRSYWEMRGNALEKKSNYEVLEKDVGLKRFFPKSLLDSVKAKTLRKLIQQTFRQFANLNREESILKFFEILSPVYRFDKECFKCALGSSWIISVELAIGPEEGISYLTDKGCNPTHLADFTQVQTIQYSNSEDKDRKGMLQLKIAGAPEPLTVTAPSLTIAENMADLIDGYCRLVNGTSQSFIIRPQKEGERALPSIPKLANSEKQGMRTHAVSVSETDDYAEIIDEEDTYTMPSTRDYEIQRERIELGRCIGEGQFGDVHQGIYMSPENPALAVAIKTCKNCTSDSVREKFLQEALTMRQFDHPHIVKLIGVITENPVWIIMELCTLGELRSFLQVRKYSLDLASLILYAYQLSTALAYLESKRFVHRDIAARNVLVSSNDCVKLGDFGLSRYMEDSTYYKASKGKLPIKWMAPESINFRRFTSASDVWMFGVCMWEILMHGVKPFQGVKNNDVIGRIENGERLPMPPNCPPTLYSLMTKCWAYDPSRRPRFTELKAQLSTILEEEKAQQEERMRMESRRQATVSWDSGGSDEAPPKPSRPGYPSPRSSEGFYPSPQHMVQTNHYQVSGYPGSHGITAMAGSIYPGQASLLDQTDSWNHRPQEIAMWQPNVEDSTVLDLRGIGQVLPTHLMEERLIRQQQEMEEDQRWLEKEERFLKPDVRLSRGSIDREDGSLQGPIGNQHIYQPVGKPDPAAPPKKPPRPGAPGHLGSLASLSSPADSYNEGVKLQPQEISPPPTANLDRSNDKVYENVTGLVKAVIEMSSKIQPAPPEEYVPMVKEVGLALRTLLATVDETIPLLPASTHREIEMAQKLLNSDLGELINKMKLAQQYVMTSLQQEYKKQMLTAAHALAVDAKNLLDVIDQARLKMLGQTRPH

For `CCOP(=O)(Cc1ccc(Nc2ncc(C(F)(F)F)c(Nc3ccc([C@H]4CC[C@@H](C(N)=O)CC4)c4c3C(=O)N(C)C4)n2)c(OC)c1)OCC` [Example 272, Diethyl (4-{[4-{[7-(cis-4-carbamoylcyclohexyl)-2-methyl-3-oxo-2,3-dihydro-1H-isoindol-4-yl]amino}-5-(trifluoromethyl)pyrimidin-2-yl]amino}-3-methoxybenzyl)phosphonate], the IC50 in assay [1] and in assay [2] was < 1000 nM each time.
On to `CCOP(=O)(Cc1ccc(Nc2ncc(C(F)(F)F)c(Nc3ccc([C@H]4CC[C@@H](C(=O)N(C)C)CC4)c4c3C(=O)N(C)C4)n2)c(OC)c1)OCC` [Example 273, Diethyl (4-{[4-({7-[cis-4-(dimethylcarbamoyl)cyclohexyl]-2-methyl-3-oxo-2,3-dihydro-1H-isoindol-4-yl}amino)-5-(trifluoromethyl)pyrimidin-2-yl]amino}-3-methoxybenzyl)phosphonate], for which the IC50 in assay [1] and in assay [2] was < 1000 nM each time.
Regarding `CCOP(=O)(Cc1ccc(Nc2ncc(C(F)(F)F)c(Nc3ccc([C@H]4CC[C@@H](C(=O)OCCN(C)C)CC4)c4c3C(=O)N(C)C4)n2)c(OC)c1)OCC` [Example 274, 2-(Dimethylamino)ethyl cis-4-(7-{[2-({4-[(diethoxyphosphoryl)methyl]-2-methoxyphenyl}amino)-5-(trifluoromethyl)pyrimidin-4-yl]amino}-2-methyl-1-oxo-2,3-dihydro-1H-isoindol-4-yl)cyclohexanecarboxylate], the IC50 in assay [1] and in assay [2] was < 1000 nM each time.
With `CCOP(=O)(Cc1ccc(Nc2ncc(C(F)(F)F)c(Nc3ccc([C@H]4CC[C@@H](C(=O)NO)CC4)c4c3C(=O)N(C)C4)n2)c(OC)c1)OCC` [Example 275, Diethyl (4-{[4-({7-[cis-4-(hydroxycarbamoyl)cyclohexyl]-2-methyl-3-oxo-2,3-dihydro-1H-isoindol-4-yl}amino)-5-(trifluoromethyl)pyrimidin-2-yl]amino}-3-methoxybenzyl)phosphonate], the IC50 in assay [1] and in assay [2] was < 1000 nM in each case.
On to `CCOP(=O)(Cc1ccc(Nc2ncc(C(F)(F)F)c(Nc3ccc([C@H]4CC[C@@H](C(=O)NOC)CC4)c4c3C(=O)N(C)C4)n2)c(OC)c1)OCC` [Example 276, Diethyl (3-methoxy-4-{[4-({7-[cis-4-(methoxycarbamoyl)cyclohexyl]-2-methyl-3-oxo-2,3-dihydro-1H-isoindol-4-yl}amino)-5-(trifluoromethyl)pyrimidin-2-yl]amino}benzyl)phosphonate], for which the IC50 in assay [1] and in assay [2] was < 1000 nM each time.
For the molecule `CCOP(=O)(Cc1ccc(Nc2ncc(C(F)(F)F)c(Nc3ccc([C@H]4CC[C@](C)(C(=O)O)CC4)c4c3C(=O)N(C)C4)n2)c(OC)c1)OCC` [Example 282, trans-4-(7-{[2-({4-[(Diethoxyphosphoryl)methyl]-2-methoxyphenyl}amino)-5-(trifluoromethyl)pyrimidin-4-yl]amino}-2-methyl-1-oxo-2,3-dihydro-1H-isoindol-4-yl)-1-methylcyclohexanecarboxylic acid], the IC50 in assay [1] and in assay [2] was < 1000 nM in each case.
Consider `CCOP(=O)(Cc1ccc(Nc2ncc(C(F)(F)F)c(Nc3ccc([C@H]4CC[C@@H](C#N)CC4)c4c3C(=O)N(C)C4)n2)c(OC)c1)OCC` [Example 283, Diethyl (4-{[4-{[7-(cis-4-cyanocyclohexyl)-2-methyl-3-oxo-2,3-dihydro-1H-isoindol-4-yl]amino}-5-(trifluoromethyl)pyrimidin-2-yl]amino}-3-methoxybenzyl)phosphonate], for which the IC50 in assay [1] and in assay [2] was < 1000 nM throughout.
Take `CCOP(=O)(Cc1ccc(Nc2ncc(C(F)(F)F)c(Nc3ccc([C@H]4CC[C@@](C)(C(=O)O)CC4)c4c3C(=O)N(C)C4)n2)c(OC)c1)OCC` [Example 284, cis-4-(7-{[2-({4-[(Diethoxyphosphoryl)methyl]-2-methoxyphenyl}amino)-5-(trifluoromethyl)pyrimidin-4-yl]amino}-2-methyl-1-oxo-2,3-dihydro-1H-isoindol-4-yl)-1-methylcyclohexanecarboxylic acid]: the 50% inhibitory concentration (IC50) in assay [1] and in assay [2] was < 1000 nM each time.
`CCOP(=O)(Cc1ccc(Nc2ncc(C(F)(F)F)c(Nc3ccc([C@H]4CC[C@@](C(=O)O)(N(C)C)CC4)c4c3C(=O)N(C)C4)n2)c(OC)c1)OCC` [Example 285, cis-4-(7-{[2-({4-[(diethoxyphosphoryl)methyl]-2-methoxyphenyl}amino)-5-(trifluoromethyl)pyrimidin-4-yl]amino}-2-methyl-1-oxo-2,3-dihydro-1H-isoindol-4-yl)-1-(dimethylamino)cyclohexanecarboxylic acid]: the IC50 in assay [1] and in assay [2] was < 1000 nM each time.
For the molecule `CCOP(=O)(Cc1ccc(Nc2ncc(C(F)(F)F)c(Nc3ccc([C@H]4CC[C@H](O)CC4)c4c3C(=O)N(C)C4)n2)c(OC)n1)OCC` [Example 286, Diethyl [(5-{[4-{[7-(trans-4-hydroxycyclohexyl)-2-methyl-3-oxo-2,3-dihydro-1H-isoindol-4-yl]amino}-5-(trifluoromethyl)pyrimidin-2-yl]amino}-6-methoxypyridin-2-yl)methyl]phosphonate], the IC50 in assay [1] and in assay [2] was < 1000 nM each time.
As for `CCOP(=O)(Cc1ccc(Nc2ncc(C(F)(F)F)c(Nc3ccc(N4CCNC(C(=O)O)C4)c4c3C(=O)N(C)C4)n2)c(OC)c1)OCC` (stereo not drawn) [Example 287, 4-(7-{[2-({4-[(Diethoxyphosphoryl)methyl]-2-methoxyphenyl}amino)-5-(trifluoromethyl)pyrimidin-4-yl]amino}-2-methyl-1-oxo-2,3-dihydro-1H-isoindol-4-yl)piperazine-2-carboxylic acid], the results for the IC50 in assay [1] and in assay [2] were 1000 to 10000 nM and < 1000 nM, respectively.
The like results for `CCOP(=O)(Cc1ccc(Nc2ncc(C(F)(F)F)c(Nc3ccc([C@H]4CC[C@H](OCOP(=O)(O)O)CC4)c4c3C(=O)N(C)C4)n2)c(OC)c1)OCC` [Example 288, {[trans-4-(7-{[2-({4-[(diethoxyphosphoryl)methyl]-2-methoxyphenyl}amino)-5-(trifluoromethyl)pyrimidin-4-yl]amino}-2-methyl-1-oxo-2,3-dihydro-1H-isoindol-4-yl)cyclohexyl]oxy}methyl phosphate] were, in that order, < 1000 nM and < 1000 nM.
The matching figures for `CCOP(=O)(Cc1ccc(Nc2ncc(C(F)(F)F)c(Nc3ccc(-c4cnn(CCCO)c4)c4c3C(=O)N(C)C4)n2)c(OC)c1)OCC` [Example 289, Diethyl (4-{[4-({7-[1-(3-hydroxypropyl)-1H-pyrazol-4-yl]-2-methyl-3-oxo-2,3-dihydro-1H-isoindol-4-yl}amino)-5-(trifluoromethyl)pyrimidin-2-yl]amino}-3-methoxybenzyl)phosphonate]: < 1000 nM and < 1000 nM.
The like results for `CCOP(=O)(Cc1ccc(Nc2ncc(C(F)(F)F)c(Nc3cccc4c3c(=O)c(C)cn4C)n2)c(OC)c1)OCC` [Example 300, Diethyl [4-({4-[(1,3-dimethyl-4-oxo-1,4-dihydroquinolin-5-yl)amino]-5-(trifluoromethyl)pyrimidin-2-yl}amino)-3-methoxybenzyl]phosphonate] were, in that order, < 1000 nM and < 1000 nM.
`CCOC(=O)Cn1cc(C)c(=O)c2c(Nc3nc(Nc4ccc(CP(=O)(OCC)OCC)cc4OC)ncc3C(F)(F)F)cccc21` [Example 301]: the IC50 in assay [1] and in assay [2] was < 1000 nM each time.
In the case of `CCOP(=O)(Cc1ccc(Nc2ncc(C(F)(F)F)c(Nc3cccc4c3c(=O)c(C)cn4CC(=O)O)n2)c(OC)c1)OCC` [Example 302], the IC50 was 1000 to 10000 nM in assay [1] and < 1000 nM in assay [2].
The like results for `CCOP(=O)(Cc1ccc(Nc2ncc(C(F)(F)F)c(Nc3cccc4c3c(=O)c(C)cn4CP(=O)(OCC)OCC)n2)c(OC)c1)OCC` [Example 303] were, in that order, < 1000 nM and < 1000 nM.
The like results for `CCOC(=O)[C@H]1CC[C@H](c2ccc(Nc3nc(Nc4ccc(CP(=O)(OCC)OCC)cc4OC)ncc3C(F)(F)F)c3c(=O)c(C)c[nH]c32)CC1` [Example 304, Ethyl trans-4-(5-{[2-({4-[(diethoxyphosphoryl)methyl]-2-methoxyphenyl}amino)-5-(trifluoromethyl)pyrimidin-4-yl]amino}-3-methyl-4-oxo-1,4-dihydroquinolin-8-yl)cyclohexanecarboxylate] were, in that order, < 1000 nM and < 1000 nM.
The like results for `CCOC(=O)[C@H]1CC[C@@H](c2ccc(Nc3nc(Nc4ccc(CP(=O)(OCC)OCC)cc4OC)ncc3C(F)(F)F)c3c(=O)c(C)c[nH]c32)CC1` [Example 305, Ethyl cis-4-(5-{[2-({4-[(diethoxyphosphoryl)methyl]-2-methoxyphenyl}amino)-5-(trifluoromethyl)pyrimidin-4-yl]amino}-3-methyl-4-oxo-1,4-dihydroquinolin-8-yl)cyclohexanecarboxylate] were, in that order, < 1000 nM and < 1000 nM.
As for `CCOP(=O)(Cc1ccc(Nc2ncc(C(F)(F)F)c(Nc3ccc([C@H]4CC[C@@H](C(=O)O)CC4)c4[nH]cc(C)c(=O)c34)n2)c(OC)c1)OCC` [Example 306, Cis-4-(5-{[2-({4-[(diethoxyphosphoryl)methyl]-2-methoxyphenyl}amino)-5-(trifluoromethyl)pyrimidin-4-yl]amino}-3-methyl-4-oxo-1,4-dihydroquinolin-8-yl)cyclohexanecarboxylic acid], the IC50 in assay [1] and in assay [2] was < 1000 nM in each case.
With `CCOP(=O)(Cc1ccc(Nc2ncc(C(F)(F)F)c(Nc3ccc([C@H]4CC[C@H](C(=O)O)CC4)c4[nH]cc(C)c(=O)c34)n2)c(OC)c1)OCC` [Example 307, Trans-4-(5-{[2-({4-[(diethoxyphosphoryl)methyl]-2-methoxyphenyl}amino)-5-(trifluoromethyl)pyrimidin-4-yl]amino}-3-methyl-4-oxo-1,4-dihydroquinolin-8-yl)cyclohexanecarboxylic acid], the IC50 is 1000 to 10000 nM in assay [1] and < 1000 nM in assay [2].

The record behind these values is US9096624B2 (OSI Pharmaceuticals, LLC, priority 2009, dated 2015).
